We go through two compounds from patent US20210009627A1, “CYCLIC DINUCLEOTIDE COMPOUNDS CONTAINING 2-AZA-HYPOXANTHINE OR 6H-PYTAZOLO[1,5-D][1,2,4]TRIZAIN-7-ONE AS STRING AGONISTS” (BOEHRINGER INGELHEIM INTERNATIONAL GMBH, priority 2018, published 2021).

pEC50: −log10 of the molar value. Where a name gives a salt, the structure may show the parent alone.

The target of test [1] is Human STING (hSTING, residues 155-341, wild-type sequence) (Homo sapiens, UniProt Q86WV6, H232R). As to the kind of experiment: hSTING binding by differential scanning fluorimetry (DSF). As to conditions: 100 μM test compound, 3 μM target protein, thermal shift, at least two measurements averaged; read-out: hSTING Tm shift. On the procedure: 3) 2 μl of this protein-dye-mixture (25× SYPRO Orange and 15 μM Protein) was added to 8 μl compound solution. Final volume was 10 μL. 4) Certain well positions were used as negative control. 5) The plates were prepared for duplicate measurement and centrifuged for 2 min at 1000 g. 6) In the measurement, 160 cycles of 0.5° C. were used (temperature ramp 15 s/cycle, 15° C. to 95° C.). Data analysis: The dissociation curves were processed in Bio-Rad CFX Manager. Peak type was set to “negative”. At least two measurements were averaged.
Chain of Human STING (hSTING, residues 155-341, wild-type sequence) (Q86WV6 155-341 H232R): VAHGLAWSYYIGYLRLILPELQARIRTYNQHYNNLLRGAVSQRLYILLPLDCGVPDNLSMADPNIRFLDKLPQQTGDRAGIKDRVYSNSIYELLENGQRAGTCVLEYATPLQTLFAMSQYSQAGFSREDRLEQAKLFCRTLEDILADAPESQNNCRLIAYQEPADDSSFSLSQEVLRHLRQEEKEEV
In general terms: In DSF a fluorescence change marks the thermal transition of the protein.

Test [2] concerns the target T1, human STING protein in THP1-Blue ISG cells (Homo sapiens, UniProt Q86WV6, G230A/H232R/R293Q/R71H).
T1 construct: host or cells: THP1-Blue ISG cells
Put plainly: In vitro cytokine induction, THP1-Blue ISG reporter cell assay (IRF-inducible SEAP). In kind it is cell-based. As to conditions: 24 hours incubation, SEAP OD at 620 nm. From the text:
In Vitro Cytokine Induction
Activation of the STING protein expressed in THP1 cells results in an increase of interferon production. By the stable integration of an interferon regulatory factor (IRF)-inducible SEAP (secreted embryonic alkaline phosphatase) reporter construct the functional interferon signaling pathway can be monitored. Using Invivogen's QUANTI-Blue™ colorimetric enzyme assay and a suitable optical density (OD) reader the activity of SEAP can be detected and quantified. This technique could be used to characterize pharmacological modification of the STING protein. Measurements of SEAP activity were performed in THP1-Blue™ ISG cells stably expressing the human STING protein and the IRF-inducible SEAP reporter construct. Cells were cultivated for expansion in RPMI1640 medium with 10% fetal calf serum, 50 μg/ml Penicillin-Streptomycin, 100 μg/ml Zeocin, and 100 μg/ml Normocin in a 37°, 95% humidity and 5% CO2 incubator. Assay-ready cells were stored as frozen stocks.
In preparation for the assay, the cells were thawed in Zeocin-/Normocin-free medium and were distributed into the assay plates with a density of 15000 cells/15 μL per well. […]
At the day of the assay, 75 μl per well of Quanti-Blue reagent was added to all wells of the plate and the plate was incubated another 30 minutes at 37° C. The OD at 620 nm was measured on the EnVision reader (PerkinElmer). […]

Test [3] deals with T2, hSTING R293Q (Homo sapiens, UniProt Q86WV6, H232R/R293Q).
T2 construct: expressed in transfected cells; host or cells: THP1-Blue ISG hSTING KO clone, retroviral MSCV-ires-GFP-Blasti
T2 sequence (Q86WV6 whole entry H232R/R293Q): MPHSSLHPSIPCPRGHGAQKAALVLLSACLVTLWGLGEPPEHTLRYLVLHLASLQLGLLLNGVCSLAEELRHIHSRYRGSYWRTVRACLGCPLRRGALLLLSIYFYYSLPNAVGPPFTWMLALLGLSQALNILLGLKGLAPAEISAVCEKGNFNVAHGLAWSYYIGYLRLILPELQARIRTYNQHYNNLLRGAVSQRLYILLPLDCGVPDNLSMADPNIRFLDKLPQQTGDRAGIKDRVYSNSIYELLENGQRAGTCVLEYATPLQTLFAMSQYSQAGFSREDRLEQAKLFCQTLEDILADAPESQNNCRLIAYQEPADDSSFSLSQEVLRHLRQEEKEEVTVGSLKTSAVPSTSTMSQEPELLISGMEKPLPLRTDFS
As to the kind of experiment: THP1-Blue ISG hSTING KO reporter cells expressing hSTING R293Q variant. Type of test: cell-based. As to conditions: R293Q variant cell line. From the text:
(§1) Several single nucleotide polymorphisms have been identified in the human STING gene that may affect the response to cyclic dinucleotides. To determine the activity of compounds of the invention, THP1-Blue ISG reporter cell lines expressing the different human STING variants have been generated. To do so, the endogenous human STING was first deleted using the CRISPR/CAS9 system: THP1-Blue ISG cells were electroporated with ALL-IN-ONE CRISPR plasmids targeting the STING gene (purchased from Sigma encoding the gRNA and GFP as a reporter gene for successful transduction). GFP positive cells then were sorted 24 h post transfection and expanded. Cells were then dispersed in semisolid methocel medium to allow single cell clone isolations. Clones were then screened for cGAMP responsiveness using the Quanti-blue reporter assay. Non-responsive clones were subsequently analysed for STING loss by western blotting and sequencing of the STING locus.
(§2) For the overexpression of the human STING variants, a confirmed THP1-Blue ISG hSTING KO clone was transduced with individual retroviral plasmids (MSCV-ires-GFP-Blasti) encoding the allelic variants of hSTING (WT, HAQ, R232H, AQ and R293Q), respectively. Transduced cells were sorted for different levels of GFP fluorescence and STING allele expression was analysed by western blot.

Test [4] deals with T3, hSTING AQ (Homo sapiens, UniProt Q86WV6, G230A/H232R/R293Q).
T3 construct: expressed in transfected cells; host or cells: THP1-Blue ISG hSTING KO clone, retroviral MSCV-ires-GFP-Blasti
T3 sequence (Q86WV6 whole entry G230A/H232R/R293Q): as the sequence (Q86WV6 whole entry H232R/R293Q) above, with G230A counted along it
Put plainly: THP1-Blue ISG hSTING KO reporter cells expressing hSTING AQ variant. As to conditions: AQ variant cell line. In kind it is cell-based.
Text: as §1, §2

Test [5] concerns the target T4, hSTING HAQ (Homo sapiens, UniProt Q86WV6, G230A/H232R/R293Q/R71H).
T4 construct: expressed in transfected cells; host or cells: THP1-Blue ISG hSTING KO clone, retroviral MSCV-ires-GFP-Blasti
Put plainly: THP1-Blue ISG hSTING KO reporter cells expressing hSTING HAQ variant. In kind it is cell-based. The note with it: HAQ variant cell line.
Text: as §1, §2

Test [6] concerns the target T5, hSTING WT (Homo sapiens, UniProt Q86WV6, H232R).
T5 construct: expressed in transfected cells; host or cells: THP1-Blue ISG hSTING KO clone, retroviral MSCV-ires-GFP-Blasti
As to the kind of experiment: THP1-Blue ISG hSTING KO reporter cells expressing hSTING WT variant. In kind it is cell-based. As to conditions: WT variant cell line.
Text: as §1, §2

Test [7] deals with T6, hSTING R232H (Homo sapiens, UniProt Q86WV6).
T6 construct: expressed in transfected cells; host or cells: THP1-Blue ISG hSTING KO clone, retroviral MSCV-ires-GFP-Blasti
T6 sequence (Q86WV6 whole entry, stated change not applied): as the sequence (Q86WV6 whole entry H232R/R293Q) above, with R232H, Q293R counted along it
As to the kind of experiment: THP1-Blue ISG hSTING KO reporter cells expressing hSTING R232H variant. In kind it is cell-based. The note with it: R232H variant cell line.
Text: as §1, §2

T1 sequence (Q86WV6 whole entry R71H/G230A/H232R/R293Q): as the sequence (Q86WV6 whole entry H232R/R293Q) above, with R71H, G230A counted along it
T4 sequence (Q86WV6 whole entry R71H/G230A/H232R/R293Q): as the sequence (Q86WV6 whole entry H232R/R293Q) above, with R71H, G230A counted along it
T5 sequence (Q86WV6 whole entry H232R): as the sequence (Q86WV6 whole entry H232R/R293Q) above, with Q293R counted along it

In the case of `Nc1ncnc2c1ncn2[C@@H]1O[C@@H]2COP(=O)(S)O[C@@H]3[C@H](O)[C@@H](COP(=O)(S)O[C@H]2[C@H]1F)O[C@H]3c1cnn2c(=O)[nH]ncc12` (single isomer, unassigned) [Example 2.1, Cyclic 8-δ-D-ribofuranosyl-pyrazolo[1,5-d]-1,2,4-triazin-4(3H)-one-(2′→5′)-phosphorothioate-2′-F-2′-deoxyadenosine-(3′→5′)-phosphorothioate sodium salt], the ΔTm at 100 µM in test [1] came to 17.9 °C. Further, in test [2], the pEC50 (commonly −log10 of the EC50, conventionally taken in molar units) was 6.85.

For the compound `Nc1ncnc2c1ncn2[C@@H]1O[C@@H]2COP(=O)(S)O[C@@H]3[C@H](O)[C@@H](COP(=O)(S)O[C@H]2[C@H]1F)O[C@H]3n1cnc2c(=O)[nH]nnc21` (single isomer, unassigned) [Example 1.1, Cyclic 2-azainosine-(2′→5′)-phosphorothioate-2′-F-2′-deoxyadenosine-(3′→5′)-phosphoro-thioate sodium salt], the pEC50 in test [3] is 3.29; in test [4] it was 3.29; in test [5] it was 3.29; in test [2], 6.80; in test [6], 3.29; in test [7], 3.29. Further, in test [1], the ΔTm at 100 µM was found to be 23.9 °C.
